Experimental data taken from ChEMBL document CHEMBL4190322, “Structure-based development of novel triazoles and related thiazolotriazoles as anticancer agents and Cdc25A/B phosphatase inhibitors. Synthesis, in vitro biological evaluation, molecular docking and in silico ADME-T studies” (Eur J Med Chem, 2017).
Activity calls are given as the source filed them. No cut-off for these calls is given here.

Assays:
Format in all cases: functional
OVCAR-4 = assay: Growth inhibition of human OVCAR4 cells at 10 uM after 48 hrs by SRB assay relative to control
CCRF-CEM = assay: Growth inhibition of human CCRF-CEM cells at 10 uM after 48 hrs by SRB assay relative to control; conditions: read-out: GI
Malme-3M = assay: Growth inhibition of human MALME-3M cells at 10 uM after 48 hrs by SRB assay relative to control
U-251 = assay: Growth inhibition of human U251 cells at 10 uM after 48 hrs by SRB assay relative to control; conditions: U-251, 48 h, read-out: GI
MCF7 = assay: Growth inhibition of human MCF7 cells at 10 uM after 48 hrs by SRB assay relative to control; conditions: for inhibition of growth at 10 µM: MCF7, 48 h, read-out: GI
PC-3 = assay: Growth inhibition of human PC3 cells at 10 uM after 48 hrs by SRB assay relative to control; conditions: PC-3, 48 h, read-out: GI
NCI-H322M = assay: Growth inhibition of human NCI-H322M cells at 10 uM after 48 hrs by SRB assay relative to control
NCI/ADR-RES = assay: Growth inhibition of human NCI/ADR-RES cells at 10 uM after 48 hrs by SRB assay relative to control; conditions: read-out: GI
NCI-H522 = assay: Growth inhibition of human NCI-H522 cells at 10 uM after 48 hrs by SRB assay relative to control; conditions: NCI-H522, 48 h, read-out: GI
UO-31 = assay: Growth inhibition of human UO31 cells at 10 uM after 48 hrs by SRB assay relative to control; conditions: UO-31, 48 h, read-out: GI
HOP-62 = assay: Growth inhibition of human HOP62 cells at 10 uM after 48 hrs by SRB assay relative to control; conditions: HOP-62, 48 h, read-out: GI
HT-29 = assay: Growth inhibition of human HT-29 cells at 10 uM after 48 hrs by SRB assay relative to control
SK-OV-3 = assay: Growth inhibition of human SKOV3 cells at 10 uM after 48 hrs by SRB assay relative to control; conditions: SK-OV-3, 48 h, read-out: GI
SK-MEL-5 = assay: Growth inhibition of human SK-MEL-5 cells at 10 uM after 48 hrs by SRB assay relative to control; conditions: for inhibition of growth at 10 µM: SK-MEL-5, 48 h, read-out: GI
HCT-116 = assay: Growth inhibition of human HCT116 cells at 10 uM after 48 hrs by SRB assay relative to control
UACC-62 = assay: Growth inhibition of human UACC62 cells at 10 uM after 48 hrs by SRB assay relative to control; conditions: for inhibition of growth at 10 µM: UACC-62, 48 h, read-out: GI
NCI-H226 = assay: Growth inhibition of human NCI-H226 cells at 10 uM after 48 hrs by SRB assay relative to control
A549 = assay: Growth inhibition of human A549 cells at 10 uM after 48 hrs by SRB assay relative to control; conditions: for inhibition of growth at 10 µM: A549, 48 h, read-out: GI
NCI-H23 = assay: Growth inhibition of human NCI-H23 cells at 10 uM after 48 hrs by SRB assay relative to control; conditions: NCI-H23, 48 h, read-out: GI
UACC-257 = assay: Growth inhibition of human UACC257 cells at 10 uM after 48 hrs by SRB assay relative to control
SNB-75 = assay: Growth inhibition of human SNB75 cells at 10 uM after 48 hrs by SRB assay relative to control; conditions: for inhibition of growth at 10 µM: SNB-75, 48 h, read-out: GI
HOP-92 = assay: Growth inhibition of human HOP92 cells at 10 uM after 48 hrs by SRB assay relative to control; conditions: HOP-92, 48 h, read-out: GI
LOX IMVI = assay: Growth inhibition of human LOXIMVI cells at 10 uM after 48 hrs by SRB assay relative to control; conditions: read-out: GI
K562 = assay: Growth inhibition of human K562 cells at 10 uM after 48 hrs by SRB assay relative to control; conditions: K562, 48 h, read-out: GI
HL-60 = assay: Growth inhibition of human HL60 cells at 10 uM after 48 hrs by SRB assay relative to control
SNB-19 = assay: Growth inhibition of human SNB19 cells at 10 uM after 48 hrs by SRB assay relative to control; conditions: for inhibition of growth at 10 µM: SNB-19, 48 h, read-out: GI
MDA-MB-468 = assay: Growth inhibition of human MDA-MB-468 cells at 10 uM after 48 hrs by SRB assay relative to control
RXF 393 = assay: Growth inhibition of human RXF393 cells at 10 uM after 48 hrs by SRB assay relative to control
SF-268 = assay: Growth inhibition of human SF268 cells at 10 uM after 48 hrs by SRB assay relative to control
RPMI-8226 = assay: Growth inhibition of human RPMI8226 cells at 10 uM after 48 hrs by SRB assay relative to control; conditions: for inhibition of growth at 10 µM: RPMI-8226, 48 h, read-out: GI
A498 = assay: Growth inhibition of human A498 cells at 10 uM after 48 hrs by SRB assay relative to control
CAKI-1 = assay: Growth inhibition of human Caki1 cells at 10 uM after 48 hrs by SRB assay relative to control; conditions: for inhibition of growth at 10 µM: CAKI-1, 48 h, read-out: GI
Hs-578T = assay: Growth inhibition of human Hs 578T cells at 10 uM after 48 hrs by SRB assay relative to control
KM12 = assay: Growth inhibition of human KM12 cells at 10 uM after 48 hrs by SRB assay relative to control; conditions: for inhibition of growth at 10 µM: KM12, 48 h, read-out: GI
786-0 = assay: Growth inhibition of human 786-0 cells at 10 uM after 48 hrs by SRB assay relative to control
OVCAR-8 = assay: Growth inhibition of human OVCAR8 cells at 10 uM after 48 hrs by SRB assay relative to control
MOLT-4 = assay: Growth inhibition of human MOLT4 cells at 10 uM after 48 hrs by SRB assay relative to control; conditions: MOLT-4, 48 h, read-out: GI
SK-MEL-2 = assay: Growth inhibition of human SK-MEL-2 cells at 10 uM after 48 hrs by SRB assay relative to control; conditions: SK-MEL-2, 48 h, read-out: GI
OVCAR-3 = assay: Growth inhibition of human OVCAR3 cells at 10 uM after 48 hrs by SRB assay relative to control
SR = assay: Growth inhibition of human SR cells at 10 uM after 48 hrs by SRB assay relative to control; conditions: read-out: GI

COc1ccc(Cc2nnc(SCC(=O)Nc3ccc(C)cc3)n2-c2ccc(C)cc2)cc1
growth inhibition (GI) (OVCAR-4): inactive | inhibition of growth at 10 µM (CCRF-CEM): 7.21% | growth inhibition (GI) (Malme-3M): inactive | inhibition of growth at 10 µM (U-251): 2% | inhibition of growth at 10 µM (MCF7): 3% | inhibition of growth at 10 µM (PC-3): 32.4% | growth inhibition (GI) (NCI-H322M): inactive | inhibition of growth at 10 µM (NCI/ADR-RES): 5.55% | inhibition of growth at 10 µM (NCI-H522): 13.1% | inhibition of growth at 10 µM (UO-31): 31.3% | inhibition of growth at 10 µM (HOP-62): 1.2% | growth inhibition (GI) (HT-29): inactive | inhibition of growth at 10 µM (SK-OV-3): 12% | growth inhibition (GI) (SK-MEL-5): inactive | growth inhibition (GI) (HCT-116): inactive | inhibition of growth at 10 µM (UACC-62): 4.65% | growth inhibition (GI) (NCI-H226): inactive | inhibition of growth at 10 µM (A549): 1.85% | inhibition of growth at 10 µM (NCI-H23): 2% | growth inhibition (GI) (UACC-257): inactive | inhibition of growth at 10 µM (SNB-75): 1.89% | inhibition of growth at 10 µM (HOP-92): 17.5% | inhibition of growth at 10 µM (LOX IMVI): 2.4% | inhibition of growth at 10 µM (K562): 26.4% | growth inhibition (GI) (HL-60): inactive | inhibition of growth at 10 µM (SNB-19): 3.42% | growth inhibition (GI) (MDA-MB-468): inactive | growth inhibition (GI) (RXF 393): inactive | inhibition of growth at 10 µM (SF-268; SF-268, 48 h, read-out: GI): 4.43% | inhibition of growth at 10 µM (RPMI-8226): 10% | inhibition of growth at 10 µM (A498; A498, 48 h, read-out: GI): 46.2% | inhibition of growth at 10 µM (CAKI-1): 1.24% | growth inhibition (GI) (Hs-578T): inactive | inhibition of growth at 10 µM (KM12): 8.1% | growth inhibition (GI) (786-0): inactive | growth inhibition (GI) (OVCAR-8): inactive | inhibition of growth at 10 µM (MOLT-4): 39.5% | inhibition of growth at 10 µM (SK-MEL-2): 6.19% | growth inhibition (GI) (OVCAR-3): inactive | inhibition of growth at 10 µM (SR): 12.8%

COc1ccc(Cc2nnc(SCC(=O)Nc3ccc(C)cc3)n2-c2ccccc2)cc1
growth inhibition (GI) (OVCAR-4): inactive | inhibition of growth at 10 µM (CCRF-CEM): 8.16% | inhibition of growth at 10 µM (Malme-3M; read-out: GI): 1.56% | inhibition of growth at 10 µM (U-251): 1.62% | growth inhibition (GI) (MCF7): inactive | inhibition of growth at 10 µM (PC-3): 16.3% | growth inhibition (GI) (NCI-H322M): inactive | inhibition of growth at 10 µM (NCI/ADR-RES): 6.11% | inhibition of growth at 10 µM (NCI-H522): 19% | inhibition of growth at 10 µM (UO-31): 11.4% | inhibition of growth at 10 µM (HOP-62): 6.8% | growth inhibition (GI) (HT-29): inactive | inhibition of growth at 10 µM (SK-OV-3): 7.38% | inhibition of growth at 10 µM (SK-MEL-5): 1.4% | growth inhibition (GI) (HCT-116): inactive | inhibition of growth at 10 µM (UACC-62): 2.9% | growth inhibition (GI) (NCI-H226): inactive | growth inhibition (GI) (A549): inactive | inhibition of growth at 10 µM (NCI-H23): 5.6% | growth inhibition (GI) (UACC-257): inactive | growth inhibition (GI) (SNB-75): inactive | inhibition of growth at 10 µM (HOP-92): 8.7% | inhibition of growth at 10 µM (LOX IMVI): 2.2% | inhibition of growth at 10 µM (K562): 9.31% | growth inhibition (GI) (HL-60): inactive | growth inhibition (GI) (SNB-19): inactive | growth inhibition (GI) (MDA-MB-468): inactive | growth inhibition (GI) (RXF 393): inactive | growth inhibition (GI) (SF-268): inactive | growth inhibition (GI) (RPMI-8226): inactive | growth inhibition (GI) (A498): inactive | growth inhibition (GI) (CAKI-1): inactive | inhibition of growth at 10 µM (Hs-578T; read-out: GI): 1.15% | growth inhibition (GI) (KM12): inactive | growth inhibition (GI) (786-0): inactive | growth inhibition (GI) (OVCAR-8): inactive | inhibition of growth at 10 µM (MOLT-4): 14.9% | inhibition of growth at 10 µM (SK-MEL-2): 17.3% | growth inhibition (GI) (OVCAR-3): inactive | inhibition of growth at 10 µM (SR): 17%

COc1ccc(Cc2nnc3sc(SCC(=O)Nc4ccc(C)cc4)nn23)cc1
growth inhibition (GI) (OVCAR-4): inactive | inhibition of growth at 10 µM (CCRF-CEM): 7.47% | growth inhibition (GI) (Malme-3M): inactive | inhibition of growth at 10 µM (U-251): 6.5% | inhibition of growth at 10 µM (MCF7): 5.79% | inhibition of growth at 10 µM (PC-3): 11.5% | inhibition of growth at 10 µM (NCI-H322M; read-out: GI): 3.14% | inhibition of growth at 10 µM (NCI/ADR-RES): 3.81% | inhibition of growth at 10 µM (NCI-H522): 12.2% | inhibition of growth at 10 µM (UO-31): 13.6% | inhibition of growth at 10 µM (HOP-62): 2% | inhibition of growth at 10 µM (HT-29; HT-29, 48 h, read-out: GI): 1.67% | inhibition of growth at 10 µM (SK-OV-3): 4.35% | inhibition of growth at 10 µM (SK-MEL-5): 1.64% | growth inhibition (GI) (HCT-116): inactive | growth inhibition (GI) (UACC-62): inactive | growth inhibition (GI) (NCI-H226): inactive | inhibition of growth at 10 µM (A549): 2.5% | inhibition of growth at 10 µM (NCI-H23): 3.12% | growth inhibition (GI) (UACC-257): inactive | inhibition of growth at 10 µM (SNB-75): 12% | inhibition of growth at 10 µM (HOP-92): 23.8% | inhibition of growth at 10 µM (LOX IMVI): 16.7% | inhibition of growth at 10 µM (K562): 7.25% | growth inhibition (GI) (HL-60): inactive | inhibition of growth at 10 µM (SNB-19): 3.61% | growth inhibition (GI) (MDA-MB-468): inactive | inhibition of growth at 10 µM (RXF 393; RXF 393, 48 h, read-out: GI): 1.65% | growth inhibition (GI) (SF-268): inactive | inhibition of growth at 10 µM (RPMI-8226): 1.58% | growth inhibition (GI) (A498): inactive | inhibition of growth at 10 µM (CAKI-1): 11.9% | growth inhibition (GI) (Hs-578T): inactive | inhibition of growth at 10 µM (KM12): 3.51% | growth inhibition (GI) (786-0): inactive | growth inhibition (GI) (OVCAR-8): inactive | inhibition of growth at 10 µM (MOLT-4): 2.19% | inhibition of growth at 10 µM (SK-MEL-2): 14.8% | growth inhibition (GI) (OVCAR-3): inactive | inhibition of growth at 10 µM (SR): 7.23%
